Measured values published in patent US8426429B2, “2-amino-quinazoline derivatives useful as inhibitors of β-secretase (BACE)” (Jansssen Pharmaceutica N.V., priority 2004, dated 2013).

Biological target: T1, β-secretase (BACE) (Homo sapiens, UniProt P56817)
T1 construct: purchased Panvera
Test: BACE FS1 % Inhibition Assay
Type: biochemical
Protocol: The following reagents were used in this assay: sodium acetate, PEG8000 (Sigma), DMSO, HEPES, FS1 substrate [[…]] […] The FS1-substrate stock solution was prepared in DMSO as a 10 mg/mL solution. The FS1-substrate working solution was prepared by diluting the 10 mg/mL stock solution with substrate assay buffer to a final concentration of 300 μg/mL. The β-secretase (BACE) working solution was prepared by diluting a 0.83 mg/mL BACE stock solution with enzyme assay buffer to a final concentration of 4 μg/mL. Test compounds were dissolved in DMSO to 10 mM. […] The screening procedure for this assay was as follows: 15 μL of BACE working solution was pipetted into each well of a 96-well plate. To each well was then pipetted 2 μL of test compound at the selected concentration. Test compound and BACE were then mixed with a pipettor and incubated for 20 min at room temperature. To each well was then added 10 μL of the FS1 substrate working solution. The plates were then incubated for 1 hour at room temperature. […] The procedure for the blank was as follows. 15 μL of assay buffer was pipetted into each well to be used as a blank control. To each well was then added 2 μL of vehicle and 10 μL of FS1-substrate working solution. The plates were then incubated for 1 hour at room temperature. […] The procedure for the positive control was as follows: 15 μL of BACE working solution was pipetted into each well to be used as a positive control. To each well was then pipetted 2 μL of vehicle. Vehicle and BACE were then mixed with a pipettor and incubated for 20 min at room temperature. To each well was then added 10 μL of the FS1 substrate working solution. The plates were then incubated for 1 hour at room temperature. […] For test compounds, % inhibition was determined at each concentration as follows: [formula]

T1 sequence (P56817 46-501): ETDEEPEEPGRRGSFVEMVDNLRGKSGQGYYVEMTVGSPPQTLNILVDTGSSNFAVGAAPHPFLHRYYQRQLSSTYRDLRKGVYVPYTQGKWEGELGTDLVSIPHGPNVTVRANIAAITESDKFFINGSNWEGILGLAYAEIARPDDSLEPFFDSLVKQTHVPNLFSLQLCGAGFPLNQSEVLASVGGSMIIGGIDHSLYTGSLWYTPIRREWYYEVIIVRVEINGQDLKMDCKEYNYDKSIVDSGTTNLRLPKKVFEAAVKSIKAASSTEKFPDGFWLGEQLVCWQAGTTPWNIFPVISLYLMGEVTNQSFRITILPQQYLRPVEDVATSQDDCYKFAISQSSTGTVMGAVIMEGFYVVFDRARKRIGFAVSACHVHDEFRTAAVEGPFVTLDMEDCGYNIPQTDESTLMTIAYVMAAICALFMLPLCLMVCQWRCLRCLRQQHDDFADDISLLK

| Structure (SMILES) | % Inhibition (FS) (0.3 μM test compound) [%] | % Inhibition (FS) (1 μM test compound) [%] | % Inhibition (FS) (3 μM test compound) [%] | further results |
| --- | --- | --- | --- | --- |
| COc1cccc(Nc2ccc3c(c2)CN(Cc2cccc(C(=O)N(C)C4CCCCC4)c2)C(N)=N3)c1 [Compound 433] | <30 | 33 | 88 |  |
| CC(C)(C)C(=O)NCCN1Cc2cc(-c3cnc4ccccc4c3)ccc2N=C1N [Compound 674] |  |  |  | % Inhibition (FS) (0.3 μM compound, FS1 substrate): 36%; % Inhibition (FS) (1 μM compound, FS1 substrate): <30%; % Inhibition (FS) (3 μM compound, FS1 substrate): 41% |
| CCCC(CCC)C(=O)N1CCC(N2Cc3cc(Oc4ccccc4)ccc3N=C2N)CC1 [Compound 523] | <30 | <30 | 58 |  |
| Cc1ccc(C(CCC(=O)N(C)C2CCCCC2)N2Cc3cc(Oc4ccccc4)ccc3N=C2N)cc1 (stereo not shown) [Compound 421] | <30 | 71 | 111 |  |
| CN(C(=O)CC[C@@H](C1CCOCC1)N1Cc2cc(Oc3ccccc3)ccc2N=C1N)[C@H]1CC[C@@H](C(=O)O)CC1 [Compound 745, (S)-Enantiomer of 4-cis-{[4-(2-Amino-6-phenoxy-4H-quinazolin-3-yl)-4-(tetrahydro-pyran-4-yl)-butyryl]-methyl-amino}-cyclohexanecarboxylic acid] |  |  |  | % Inhibition (FS) (0.3 μM compound, FS1 substrate, 0.3 µM): 115%; % Inhibition (FS) (1 μM compound, FS1 substrate, 1 µM): 114%; inhibition at 3 µM (3 μM compound, FS1 substrate, read-out: % Inhibition (FS)): 114% |
| CN(C(=O)c1cccc(CN2Cc3cc(C=Cc4ccccc4)ccc3N=C2N)c1)C1CCCCC1 [Compound 266] | <30 | 34 | <30 |  |
| CN(C(=O)c1cccc(CN2Cc3cc(Oc4cccc(Oc5ccccc5)c4)ccc3N=C2N)c1)C1CCCCC1 [Compound 236] | <30 | 37 | 49 |  |
| CC(C)COc1ccc2c(c1)CN(Cc1cccc(C(=O)N(C)C3CCCCC3)c1)C(N)=N2 [Compound 518] | <30 | <30 | <30 |  |
| CCCC(CCC)C(=O)N1CCC(CN2Cc3cc(Oc4ccccc4)ccc3N=C2N)CC1 [Compound 526] | <30 | 36 | 98 |  |
| CCCCCCCCCC(=O)NCCN1Cc2cc(Oc3ccccc3)ccc2N=C1N [Compound 142] |  |  | <30 | % Inhibition (FS) (10 μM test compound): 38% |
| COC(=O)[C@@H](COCc1ccccc1)N(C)C(=O)CC[C@@H](C1CCCCC1)N1Cc2cc(Oc3ccccc3)ccc2N=C1N [Compound 779] |  |  |  | % Inhibition (FS) (0.3 μM compound, FS1 substrate): 102%; % Inhibition (FS) (1 μM compound, FS1 substrate): 107%; % Inhibition (FS) (3 μM compound, FS1 substrate): 120% |
| NC1=Nc2ccc(-c3ccccc3F)cc2CN1CCNC(=O)C12CC3CC(CC(C3)C1)C2 [Compound 644] | 46 | 72 | 104 |  |
| CC(C)(C)C(=O)Nc1cccc(CN2Cc3cc(Oc4ccccc4)ccc3N=C2N)c1 [Compound 290] | <30 | <30 | <30 |  |
| NC1=Nc2ccc(Oc3ccccc3)cc2CN1Cc1cccc(C(=O)N2CCC3CCCCC3C2)c1 (stereo not shown) [Compound 193] | <30 | 34 | 67 |  |
| CCCC(CNC(=O)C12CC3CC(CC(C3)C1)C2)N1Cc2cc(Oc3ccccc3)ccc2N=C1N (stereo not shown) [Compound 555] |  |  |  | % Inhibition (FS) (0.3 μM test compound, 0.3 µM): <30%; % Inhibition (FS) (1 μM test compound, 1 µM): <30%; % Inhibition (FS) (3 μM test compound, 3 µM): 46% |
| NC1=Nc2ccc(-c3ccncc3)cc2CN1CCNC(=O)C1CCCCC1 [Compound 576] | <30 | <30 | <30 |  |
| CN(C(=O)c1cccc(CN2Cc3cc(Sc4cccc5ccccc45)ccc3N=C2N)c1)C1CCCCC1 [Compound 414] | <30 | <30 | 27 |  |
| COc1ccc2c(c1)C(CC(=O)N(C)C1CCCCC1)CC2N1Cc2cc(Oc3ccccc3)ccc2N=C1N (stereo not shown) [Compound 146] |  |  | <30 | % Inhibition (FS) (10 μM test compound): 39% |
